Data taken from patent US20110110916A1, “METHODS FOR TREATING AND/OR PREVENTING CARDIOMYOPATHIES BY ERK OR JNK INHIBITION” (priority 2008, published 2011).
Read-outs that look alike come from different tables or passages of the source.

Key:
Lmna^H222P/H222P mice [1] = assay: Echocardiography at 20 weeks of age, second-generation MEK1/2 inhibitors from 16 to 20 weeks; assay type: in vivo, mouse; details: 1 mg/kg/day, 5 days a week from 16 to 20 weeks
Description: The compounds were administered at a dose of 1 mg/kg/day, 5 days a week to Lmna^H222P/H222P mice, as previously described. Treatment was initiated at 16 weeks of age and continued until the mice were 20 weeks of age. At 20 weeks of age, the mice were analyzed by echocardiography and then sacrificed for biochemical studies. Untreated male Lmna^+/+ and Lmna^H222P/H222P mice were similarly analyzed for comparisons.

[2] = system: hearts from Lmna^H222P/H222P mice; assay: Quantification of myocardial fibrotic area (Gomori's trichrome); assay type: in vivo, mouse; details: 20 weeks of age; 1 mg/kg/day from 16 to 20 weeks; DMSO 20.93%±2.45%
Text: Later-stage cardiomyopathy caused by LMNA mutations is characterized by myocardial fibrosis. […] We quantified the myocardial fibrotic area of each animal by determining the ratio of fibrotic tissue (blue stained with Gomori's trichrome) to the total tissue area in each micrograph (FIG. 8B). Hearts from DMSO-treated Lmna^H222P/H222P mice had 20.93%±2.45% fibrotic tissue per total surface examined (FIG. 8B).
Mice were sacrificed at 20 weeks of age, and freshly removed hearts were fixed in 4% formaldehyde for 48 hours, embedded in paraffin, sectioned at 5 μm and stained with hematoxylin, eosin and Gomori's trichrome and Syrius Red. Representative stained sections were photographed using a Microphot SA (Nikon) light microscope attached to a Spot RT Slide camera (Diagnostic Instruments) with a 10× objective. Images were processed using Adobe Photoshop CS (Adobe Systems).
Later-stage cardiomyopathy caused by LMNA mutations is characterized by myocardial fibrosis (21,22). […] We quantified the myocardial fibrotic area of each animal by determining the ratio of fibrotic tissue (blue stained with Gomori's trichrome) to the total tissue area in each micrograph (FIG. 34C). Hearts from DMSO-treated Lmna^H222P/H222P mice had 15.01±0.9% fibrotic tissue per total surface examined (FIG. 34D).

MEK1/2 = details: Table 10, description of MEK1/2 inhibitors; cited from earlier work
[3] = system: hearts from Lmna^H222P/H222P mice; assay: Quantitative real-time RT-PCR of mRNAs in hearts of treated mice; assay type: in vivo, mouse; details: for expression of Colla1 and Colla2: 20 weeks of age, 1 mg/kg/day from 16 to 20 weeks
Text: Total RNA was extracted using the Rneasy isolation kit (Qiagen) as previously described (96). cDNA was synthesized as previously described (96) using Omniscript Reverse Transcriptase (Qiagen) on total cellular RNA. For each replicate in each experiment, RNA from tissue samples of different animals was used. Primers were designed that correspond to mouse RNA sequences using Primer3 (http://frodo.wi.mit.edu/cgi-biniprimer3/primer3_www.cgi). The real-time RT-PCR reaction contained iQ SYBR green super mix (Bio-Rad), 200 nM of each primer and 0.2 μl of template in a 25 μl reaction volume. Amplification was carried out using appropriate primers and the MyiQ Single-Color Real-Time PCR Detection System (Bio-Rad) with an initial denaturation at 95° C. for 2 min followed by 50 cycles at 95° C. for 30 s and 62° C. for 30 s. Relative levels of mRNA expression were calculated using the CT method (67). Individual expression values were normalized by comparison with Gapdh mRNA.
Real-time reverse transcription-PCR (RT-PCR) was used to quantify tissue RNA levels. Total RNA was extracted from cardiac ventricles of mice using the Rneasy isolation kit (Qiagen) as previously described. cDNA was synthesized using Superscript first strand synthesis system according to the manufacturer's instructions (Invitrogen) on total RNA. For each replicate in each experiment, RNA from tissue samples of different animals was used. Primers were designed correspond to mouse RNA sequences using Primer3 (http://frodo.wi.mit.edu/cgi-bin/primer3/primer3_www.cgi) for Nppa (forward 5′-[…]-3′ [SEQ ID NO: 4], reverse 5′-[…]-3′ [SEQ ID NO: 5]), Nppb (forward 5′-[…]-3′ [SEQ ID NO: 6], reverse 5′-[…]-3′ [SEQ ID NO: 7]), Mlc-2a (forward 5′-[…]-3′ [SEQ ID NO: 8], reverse 5′-[…]-3′ [SEQ ID NO: 9]), Colla1 (forward 5′-[…]-3′ [SEQ ID NO: 10], reverse 5′-[…]-3′ [SEQ ID NO: 11]), Colla2 (forward 5′-[…]-3′ [SEQ ID NO: 12], reverse 5′-[…]-3′ [SEQ ID NO: 13]) and Fn1 (forward 5′-[…]-3′ [SEQ ID NO: 14], reverse 5′-[…]-3′ [SEQ ID NO: 15]). The real-time RT-PCR reaction contained iQ SYBR green super mix (Bio-Rad), 200 nM of each primer, and 0.2 μl of template in a 25 μl reaction volume. Amplification was carried out using the MyiQ Single-Color Real-Time PCR Detection System (Bio-Rad) with an initial denaturation at 95° C. for […] followed by 50 cycles at 95° C. for 30 s and 62° C. for 30 s. Relative levels of mRNA expression were calculated using the ΔΔCT method (2). Individual expression values were normalized by comparison with Gapdh mRNA (forward 5′-[…]-3′ [SEQ ID NO: 16], reverse 5′-[…]-3′ [SEQ ID NO: 17]).

ERK1/2 = assay: Immunoblot of phosphorylated ERK1/2 versus total ERK1/2 in hearts of treated mice; assay type: in vivo, mouse; details: 1 mg/kg/day from 16 to 20 weeks of age
Description: Hearts were excised from mice at 16-weeks of age and were homogenized in RIPA extraction buffer (Cell Signalling) containing protease inhibitors (25 […]). Protein samples were subjected to SDS-PAGE, transferred to nitrocellulose membranes and blotted with primary antibodies against ERK1/2 (Santa-Cruz), phosphorylated ERK1/2 (Cell Signaling), JNK (Santa-Cruz), natriuretic peptide precursor A (Santa-Cruz), phosphorylated JNK (Cell Signaling), and Gapdh (Ambion). Secondary antibodies were HRP-conjugated (Amersham). Recognized proteins were visualized by enhanced chemiluminescence (ECL, Amersham). The signal generated using an antibody against Gapdh was used as internal controls to normalize the amounts of protein between immunoblots.
We assessed the efficacy of the chemical entities in inhibiting their targets in the heart by immunoblot using anti-total ERK1/2 (Santa Cruz) and anti-pERK1/2 (Cell Signaling) antibodies.
Proteins were loaded on 10% SDS gels and electrotransferred on a […] pore size nitrocellulose membrane (Invitrogen). We used antibodies directed against phosphorylated ERK1/2 (Cell Signaling, 1:1,000), total ERK1/2 (Santa Cruz, 1:2,000), phosphorylated JNK (Cell Signaling, 1:1,000) and total JNK (Santa Cruz, 1:200). The secondary antibodies were coupled to horseradish-peroxydase (Amersham). Recognized proteins were visualized by enhanced chemiluminescence (SuperSignal® West Pico chemiluminescent substrate, Thermo Scientific).

[4] = system: atrial natriuretic factor; assay: Serum atrial natriuretic factor before and after treatment; assay type: in vivo, mouse; details: before (16 weeks) and after (20 weeks) treatment; compared to DMSO-treated mice
Text: We measured the expression of atrial-natriuretic factor in the serum Lmna^H222P/H222P mice before (16 weeks) and after (20 weeks) the treatment with the MEK1/2 inhibitors (FIG. 3).

Lmna^H222P/H222P mice [5] = assay type: in vivo, mouse; details: Lmna^H222P/H222P mice at 16 weeks of age; i.p. 5 days a week from 8 to 16 weeks (PD98059, SP600125 3 mg/kg/day); means ± standard deviations
Description: PD98059 (Calbiochem) and SP600125 (Calbiochem) were dissolved in Dimethyl Sulfoxide (DMSO, Sigma) at a concentration of 0.5 mg/ml and were delivered to a dose of 3 mg/kg/day for 5 days a week. […] The placebo control consisted of DMSO alone. Placebo and inhibitors were administered by intraperitoneal injection using a 27G^5/8 syringe. Treatment was started when mice were 8 weeks of age and continued until 16 weeks of age.
Lmna H222P knock-in mice were generated and genotyped as described (14). […] Lmna^H222P/H222P mice were separated by sex and were given either vehicle alone (DMSO), the MEK inhibitor PD98059 alone, the JNK inhibitor SP600125 alone, both PD98059 and SP600125 together, the MEK inhibitor U0126 alone, or the MEK inhibitor MEK1/2 alone. All the mice were fed on a chow diet and housed in a barrier facility. The Institutional Animal Care and Use Committee at Columbia University Medical Center approved the use of animals in the study protocol.
Cardiac function was assessed by echocardiography with a Visualsonics Vevo 770 ultrasound with a 30-MHz transducer applied to the chest wall. Cardiac ventricular dimensions and ejection fraction were measured in 2D-mode and M-mode three times for the number of animals indicated. A “blinded” echocardiographer, unaware of the genotype or treatment, performed the examinations.
We administered PD98059, at a dose of 3 mg/kg/day or 6 mg/kg/day, or placebo (dimethylsulfoxide; DMSO) by intraperitoneal injection 5 days a week to male homozygous Lmna mutant mice (Lmna^H222P/H222P). […] PD98059 mediates its inhibitory properties by binding to MEK, therefore preventing phosphorylation of ERK1/2.
Treatment was initiated at 8 weeks of age and continued until the mice were 16 weeks of age. At 16 weeks of age, the mice were analyzed by echocardiography and then sacrificed for histological and biochemical studies. Untreated male Lmna^+/+ and Lmna^H222P/H222P mice were similarly analyzed for comparisons.

[6] = 1 mg/kg/day from 16 to 20 weeks of age

| Compound | FS (Lmna^H222P/H222P mice [1]) | LVEDD compared to DMSO-treated mice (Lmna^H222P/H222P mice [1]) | LVESD compared to DMSO-treated mice (Lmna^H222P/H222P mice [1]) | area of fibrotic tissue per total surface examined [2] | IC50 (MEK1/2) [nM] | decrease of Mlc-1a and Mlc-2a mRNAs compared to hearts of DMSO-treated mice [3, 6] | expression of Colla1 and Colla2 [3] | phosphorylation of ERK1 and ERK2 in hearts (ERK1/2) | expression of atrial natriuretic factor in serum [4] | FS improvement (Lmna^H222P/H222P mice [1]) | EF (Lmna^H222P/H222P mice [5]) [%] | FS (Lmna^H222P/H222P mice [5]) [%] | IVSD (Lmna^H222P/H222P mice [5]) [mm] | LVEDD (Lmna^H222P/H222P mice [5]) [mm] | LVESD (Lmna^H222P/H222P mice [5]) [mm] | LVPW (Lmna^H222P/H222P mice [5]) [mm] | cardiac expression of brain natriuretic factor (Nppb) [3, 6] |
| --- | --- | --- | --- | --- | --- | --- | --- | --- | --- | --- | --- | --- | --- | --- | --- | --- | --- |
| Cn1cnc2c(F)c(Nc3ccc(Br)cc3Cl)c(C(=O)NOCCO)cc21 [AZD6244] | 25.97%±5.05% | significantly smaller | significantly smaller | 11.90%±1.97% | 10 | approximately 2 fold | significantly lowered | inhibited partially | significantly decreased |  |  |  |  |  |  |  |  |
| O=C(NOCC1CC1)c1ccc(F)c(F)c1Nc1ccc(I)cc1Cl [CI-1040] |  | significantly smaller |  | 13.10%±0.96% | 1 |  | significantly lowered | inhibited partially | significantly decreased | not improved |  |  |  |  |  |  |  |
| N#CC(=C(N)Sc1ccccc1N)C(C#N)=C(N)Sc1ccccc1N [U0126, 1,4-diamino-2,3-dicyano-1,4-bis(2-aminophenylthio)butadiene] |  |  |  |  |  |  |  |  |  |  | 62.83 ± 4.09 | 33.79 ± 3.10 | 0.64 ± 0.03 | 3.54 ± 0.16 | 2.47 ± 0.09 | 0.69 ± 0.11 |  |
| N#CC(=C(N)Sc1ccc(N)cc1)c1ccccc1C(F)(F)F [MEK1/2, Z-& E-a-(amino-((4-aminophenyl)thio)methylene)-2-(trifluoromethyl)benzeneacetonitrile] |  |  |  |  |  |  |  |  |  |  | 64.43 ± 0.77 | 34.50 ± 0.36 | 0.60 ± 0.00 | 3.77 ± 0.32 | 2.62 ± 0.28 | 0.69 ± 0.08 |  |
| O=C(NOCC(O)CO)c1ccc(F)c(F)c1Nc1ccc(I)cc1F (centres unmarked) [PD0325901] | 23.23%±6.33% |  |  | 15.06%±0.28% |  | approximately 2 fold | significantly lowered | inhibited partially | trend toward diminished expression |  |  |  |  |  |  |  | decreased |
